{
  "source": "patent US5731326A",
  "about": "“PDGF antagonists II” (ZymoGenetics, Inc., priority 1996, dated 1998)",
  "key": {"[1]": {"tested_on": "EGF", "assay": "SRE-luciferase antagonist assay, induction by EGF", "type": "cell-based", "settings": "SWISS3T3 cells, 5 hours", "source_text": "Initial characterization of NNC92-0270 as a non-peptide PDGF antagonist was made possible through an SRE-Luciferase high through-put assay system which involves selection of substances that are able to block expression of a serum response element (SRE)-luciferase reporter gene expressed in SWISS3T3 cells. […] The degree of antagonist specificity can be determined by comparing the resultant signal for the three growth factors (PDGF, bFGF and EGF). […]\nFollowing induction, luciferase activity was measured using a Promega luciferase assay kit (E1500; Promega Corp., Madison, Wis.) according to the assay kit protocol. […] The amount of luminescence (relative light units, RLU) was determined following a 1 second mix and a 1-3 integration of signal. Basal (uninduced) luciferase signal was subtracted from all measurements, and the luciferase signal induced by test samples was expressed as a percentage of the signal in the control. […]"}, "[2]": {"tested_on": "baboon smooth muscle cells", "assay": "Inhibition of PDGF-BB mitogenic activity on baboon smooth muscle cells ([3H] thymidine incorporation)", "type": "cell-based", "settings": "for 3H Thymidine (CPM Incorporated), (-) Heparin: no heparin, control 1701", "description": "NNC92-0270 was analyzed for the ability to inhibit the mitogenic activity of PDGF on baboon smooth muscle cells. All mitogenesis assays performed on baboon vascular smooth muscle cells (BVSMCs) were done on primary cultures of cells between passages 13 and 20 in culture. The initial cultures were established from outgrowth of aortic tissue explants. Baboon smooth muscle cells were plated at approximately 20,000 cells per well, in DMEM supplemented with 10% fetal calf serum, into 24-well culture dishes. One day prior to use the culture media was removed, and 1 ml of Mito Media (Table 5) was added to each well to allow the cells to become quiescent. At the time of the experiment the cells were stimulated with PDGF-BB. […] 20× stock solutions were made for each of the PDGF concentrations by dilution in 10 mM acetic acid containing 0.25% albumin, and 50 ul PDGF or dilution vehicle alone was added to the culture wells.\nTo analyze the activity of NNC92-0270 to neutralize PDGF-BB mitogenic activity, 1 ng/ml of PDGF was added to wells along with dilutions of NNC92-0270. The cells were incubated with the test samples for approximately 20 hours at 37 ° C. Fifty microliters of a 20× stock solution of [3H] Thymidine was then added to each well to give a final concentration of 1 μCi/ml. The cells were incubated for 4 hours at 37 ° C., washed with PBS, then harvested with trypsin and counted for [^3 H] thymidine incorporation in a Wallac (Turku, Finland) Betaplate™ liquid scintillation counter.\nNNC92-0270 was incubated with 1 ng/ml of PDGF-BB in the presence of 0.5 U/ml of unfractionated heparin. The cells were pulse labeled with [^3 H] thymidine as described above and the level of [^3 H] thymidine determined."}},
  "data": [
    {"smiles": "O=C(NN1CCCCC1)NS(=O)(=O)c1ccc(CCNC(=O)c2[nH]c3ccccc3c2OCc2ccccc2)cc1", "note": "[NNC92-0270]", "values": [
      {"measurement": "Induction of SRE-luciferase, EGF IC50", "setting": "[1]", "result": "No activity"},
      {"measurement": "3H Thymidine (CPM Incorporated), (+) 0.5 U/ml Heparin", "setting": "[2]; 6.2 μM with 1 ng/ml PDGF-BB and 0.5 U/ml heparin", "result": 1007, "unit": "CPM"},
      {"measurement": "3H Thymidine (CPM Incorporated), (-) Heparin", "setting": "[2]; 6.2 μM with 1 ng/ml PDGF-BB", "result": 1378, "unit": "CPM"},
      {"measurement": "3H Thymidine (CPM Incorporated), (+) 0.5 U/ml Heparin", "setting": "[2]; 12.5 μM with 1 ng/ml PDGF-BB and 0.5 U/ml heparin", "result": 586, "unit": "CPM"},
      {"measurement": "3H Thymidine (CPM Incorporated), (-) Heparin", "setting": "[2]; 12.5 μM with 1 ng/ml PDGF-BB", "result": 870, "unit": "CPM"},
      {"measurement": "3H Thymidine (CPM Incorporated), (+) 0.5 U/ml Heparin", "setting": "[2]; 25 μM with 1 ng/ml PDGF-BB and 0.5 U/ml heparin", "result": 220, "unit": "CPM"},
      {"measurement": "3H Thymidine (CPM Incorporated), (-) Heparin", "setting": "[2]; 25 μM with 1 ng/ml PDGF-BB", "result": 334, "unit": "CPM"},
      {"measurement": "3H Thymidine (CPM Incorporated), (+) 0.5 U/ml Heparin", "setting": "[2]; 50 μM with 1 ng/ml PDGF-BB and 0.5 U/ml heparin", "result": 211, "unit": "CPM"},
      {"measurement": "3H Thymidine (CPM Incorporated), (-) Heparin", "setting": "[2]; 50 μM with 1 ng/ml PDGF-BB", "result": 309, "unit": "CPM"},
      {"measurement": "Effect of adding heparin to the compound on [3H] thymidine incorporation (in words)", "setting": "[2]; 0.5 U/ml unfractionated heparin, 1 ng/ml PDGF-BB", "result": "further inhibition"},
      {"measurement": "IC50", "setting": "[2]; Papio anubis, 20 h, read-out: ED50 for the inhibition of PDGF-BB mitogenic activity", "result": "~12.5", "unit": "µM"}
    ]}
  ]
}
